{"source": "patent US9187406B2", "about": "(The Research Foundation of State University of New York, priority 2009, dated 2015)", "key": {"diabetic rats": {"system": "diabetic rats", "test": "Diabetic rat model, 1-week oral treatment: diabetic adverse events", "type": "in vivo", "settings": "100 mg/kg oral once/day for 7 days, n = 6"}, "[1]": {"target": "chromatographically-purified MMP-2 (Homo sapiens (Human), UniProt P08253)", "sequence (P08253 110-660)": "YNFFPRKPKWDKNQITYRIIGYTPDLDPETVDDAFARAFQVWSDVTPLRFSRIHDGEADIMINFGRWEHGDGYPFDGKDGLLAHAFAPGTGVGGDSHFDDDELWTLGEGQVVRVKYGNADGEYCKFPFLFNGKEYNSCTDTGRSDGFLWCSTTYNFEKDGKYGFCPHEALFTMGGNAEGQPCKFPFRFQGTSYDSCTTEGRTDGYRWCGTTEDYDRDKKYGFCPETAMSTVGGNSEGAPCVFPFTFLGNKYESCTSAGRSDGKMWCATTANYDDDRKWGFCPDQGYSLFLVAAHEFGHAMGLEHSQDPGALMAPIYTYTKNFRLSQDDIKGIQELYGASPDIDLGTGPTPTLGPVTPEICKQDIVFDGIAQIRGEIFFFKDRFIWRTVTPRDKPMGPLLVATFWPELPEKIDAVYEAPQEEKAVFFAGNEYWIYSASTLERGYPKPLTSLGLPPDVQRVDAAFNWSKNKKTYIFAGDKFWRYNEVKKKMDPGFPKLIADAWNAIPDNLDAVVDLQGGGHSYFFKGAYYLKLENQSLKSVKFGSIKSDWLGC", "test": "MMP-2 inhibition in vitro, octapeptide/HPLC", "type": "biochemical"}, "[2]": {"target": "MMP-2 (72 kDa gelatinase) (Rattus norvegicus (Rat), UniProt P33436)", "test": "Diabetic rat model, 1-week oral treatment: plasma MMP-2 by gelatin zymography", "type": "in vivo", "settings": "diabetic rats, 100 mg/kg oral once/day for 7 days"}, "[3]": {"test": "Diabetic rat model, 1-week oral treatment: serum glucose", "type": "in vivo", "settings": "diabetic rats, 100 mg/kg oral once/day for 7 days", "description": "The purpose of the following was to establish an in vivo model of excessive collagen degradation to be used to test efficacy of the compounds of the subject invention. Male Sprague-Dawley rats (typically 300-400 gms of body weight), specific viral antibody free, were ordered from Charles River. Following general anesthesia via isoflurane anesthetic inhalation, diabetes was induced by an I.V. administration of streptozotocin (STZ) (50* mg/kg body weight) (Sigma Chemical Co., St Louis, Mo., USA) diluted in 0.9% citrated saline (pH 4.5), after 12 hours of fasting. After the streptozotocin injection, the animals were given free access to water and food. […] In this test, the test-paper color changes to dark brown which indicates glycosuria.\nThe latter assays were carried out using Western blot analysis with monoclonal antibodies to MMP-8."}, "[4]": {"test": "Solubility in aqueous solutions", "type": "physicochemical"}, "MMP-2": {"target": "MMP-2 (Rattus norvegicus (Rat), UniProt P33436)", "test": "Diabetic rat model, 3-week oral treatment: skin MMP-2 by ELISA", "type": "in vivo", "settings": "both low and high doses, 3 weeks", "description": "(§1) At the end of the treatment protocol, the rats were sacrificed, blood samples were collected, and whole skin (except over limbs) and gingiva were dissected (the skin, because of ample quantities of tissue were analyzed for each rat separately; the gingiva, because of the tiny amounts that could be harvested per rat, were pooled for each experimental group, as prescribed previously for tetracycline studies (30). In addition, the jaw bones were collected, defleshed, and bone loss around the teeth analyzed morphometrically as described previously (42, 43)."}, "[5]": {"target": "MMP-9 (human leukocyte gelatinase) (Homo sapiens (Human), UniProt P14780)", "sequence (P14780 94-707)": "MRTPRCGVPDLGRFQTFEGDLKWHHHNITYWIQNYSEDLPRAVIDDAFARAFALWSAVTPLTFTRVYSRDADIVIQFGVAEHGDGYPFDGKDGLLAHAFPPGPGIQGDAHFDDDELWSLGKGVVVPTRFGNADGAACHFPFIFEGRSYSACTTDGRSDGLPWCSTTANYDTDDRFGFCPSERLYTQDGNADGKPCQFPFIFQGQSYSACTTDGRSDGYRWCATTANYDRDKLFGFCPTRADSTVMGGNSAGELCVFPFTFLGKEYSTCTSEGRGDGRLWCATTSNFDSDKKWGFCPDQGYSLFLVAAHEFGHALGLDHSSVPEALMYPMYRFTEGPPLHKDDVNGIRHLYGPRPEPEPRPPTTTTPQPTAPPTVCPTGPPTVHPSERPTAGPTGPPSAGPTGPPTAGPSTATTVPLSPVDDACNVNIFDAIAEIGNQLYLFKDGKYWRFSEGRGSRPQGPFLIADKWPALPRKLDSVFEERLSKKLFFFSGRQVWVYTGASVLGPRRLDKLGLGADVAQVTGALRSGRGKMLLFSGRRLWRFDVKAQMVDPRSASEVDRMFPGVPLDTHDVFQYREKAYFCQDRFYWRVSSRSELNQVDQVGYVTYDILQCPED", "test": "MMP-9 inhibition in vitro, octapeptide/HPLC", "type": "biochemical", "description": "In contrast all three chemically-modified curcumins at 100 μm final concentration inhibited gelatinase activity by 68-100% (FIG. 6 and Table 6)."}, "[6]": {"target": "MMP-9 generated by PC-3 human prostate cancer cells (Homo sapiens (Human), UniProt P14780)", "test": "MMP-9 in conditioned media of PC-3 cells, gelatin zymography and Western blot", "type": "cell-based", "settings": "10 μM and 20 μM, 48 hr, serum-free media", "description": "Compound 1 was evaluated in a cell culture model of cancer. […] After the incubation, aliquots of the conditioned media were assayed for MMP-9 (gelatinase B) by either of two techniques, gelatin zymography (in the presence of 2 or 10 mMCa^++) and Western blot (both assays used purified MMP-9, 92 kDa gelatinase, as a standard)."}, "[7]": {"target": "T1, MMP-9 (92 kDa gelatinase) (Rattus norvegicus (Rat), UniProt P50282)", "test": "Diabetic rat model, 3-week oral treatment: gingival MMP-9 by gelatin zymography", "type": "in vivo", "settings": "diabetic rats, 100 mg/kg and 500 mg/kg oral daily, 3 weeks", "description": "as §1\n(§2) This appearance of MMP-9 only in the gingiva (FIG. 10), but not the skin (FIG. 12), of the diabetic rats is likely the result of the oral bacteria inducing inflammation in the gingiva of these immune-suppressed UD rats, whereas the skin is not exposed to this onslaught of bacteria particularly the anaerobic gram-negative bacteria in the mouth that cause periodontal and gingival inflammation."}, "[8]": {"target": "T1, MMP-9 (92 kDa gelatinase)", "test": "Diabetic rat model, 1-week oral treatment: plasma MMP-9 by gelatin zymography", "type": "in vivo", "settings": "diabetic rats, 100 mg/kg oral once/day for 7 days"}, "human monocytes [9]": {"system": "human monocytes", "test": "Cytotoxicity in human monocytes (MTS)", "type": "cell-based"}, "p38 MAP kinase": {"system": "p38 MAP kinase", "test": "p38 MAP kinase activation", "type": "cell-based, human", "settings": "preliminary studies"}, "purified human PMN MMP-8": {"target": "purified human PMN MMP-8 (Homo sapiens (Human), UniProt P22894)", "sequence (P22894 101-467)": "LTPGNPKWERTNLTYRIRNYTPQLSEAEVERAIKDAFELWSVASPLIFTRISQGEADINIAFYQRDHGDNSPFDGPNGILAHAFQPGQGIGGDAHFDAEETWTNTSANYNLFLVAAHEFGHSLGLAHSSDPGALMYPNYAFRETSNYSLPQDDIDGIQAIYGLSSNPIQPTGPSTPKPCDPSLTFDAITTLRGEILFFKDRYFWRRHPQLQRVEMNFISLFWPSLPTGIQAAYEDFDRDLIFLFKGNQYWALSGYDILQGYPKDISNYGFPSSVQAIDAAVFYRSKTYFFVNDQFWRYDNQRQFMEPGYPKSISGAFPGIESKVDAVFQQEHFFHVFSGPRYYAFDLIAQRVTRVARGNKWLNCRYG", "test": "MMP-8 inhibition, synthetic octapeptide substrate, tripeptide product by HPLC", "type": "biochemical"}, "[10]": {"system": "alveolar (periodontal) bone loss in diabetic rats", "test": "Diabetic rat model, 3-week oral treatment: alveolar bone loss, morphometric", "type": "in vivo", "settings": "3 weeks", "description": "as §1\nAlveolar bone loss (the signature pathologic event in inflammatory periodontal disease) was assessed in the defleshed jaws of the compound 1-treated (TX) and untreated rats."}, "[11]": {"test": "Extractability/recovery from human serum by HPLC", "settings": "human", "description": "Detection of compounds & extractability/recovery from human serum (for future use to determine in vivo pharmacokinetics) was achieved using HPLC. The HPLC detection method is briefly described herein. 50 μl of buffer or human serum containing 166.67 μM, 16.67 μM and 1.67 μM of the compounds were incubated with 100 μl pre-cooled (−10° C.) extraction solvent containing CAN-MeOH-0.5M oxalic acid at a ratio of 60:30:10. The mixture was vortexed and centrifuged at 10,000 rpm for 10 min. The supernatant was then aliquoted and injected into an HPLC for analysis. Stock solutions of the compounds were made 100× in DMSO, then further diluted with buffer or serum."}, "MMP-2 (gelatinase A)": {"target": "MMP-2 (gelatinase A) (Rattus norvegicus (Rat), UniProt P33436)", "test": "Diabetic rat model, 3-week oral treatment: gingival MMP-2 by gelatin zymography", "type": "in vivo", "settings": "diabetic rats, oral daily, 3 weeks", "description": "as §1, §2"}, "IL-1β": {"system": "IL-1β", "test": "Diabetic rat model, 3-week oral treatment: gingival IL-1β by ELISA", "type": "in vivo", "settings": "3 weeks", "description": "as §1"}, "[12]": {"system": "neonatal rat ventricular myocytes", "test": "Hydrogen peroxide induced LDH release", "type": "cell-based", "settings": "10 μM, H2O2 100 μM", "description": "(§3) Test compounds and concentrations (MMP inhibitors, MMPi): • 1. GM-6001: 10 μM • 2. ONO-4817: 10 μM • 3.\nNeonatal rat ventricular myocytes, serum starved for 24 h, were treated with the inhibitors 1 h prior to the addition of 100 μM of hydrogen peroxide (Sigma). LDH release in the conditioned media was quantified using CytoTox-ONE Homogeneous Membrane Integrity Assay reagent (Promega) at the indicated time points."}, "human monocytes [13]": {"system": "human monocytes", "test": "Cytotoxicity in human monocytes (MTS)", "type": "cell-based", "description": "Briefly, human peripheral blood monocytes (HMs) were isolated from a leukocyte concentrate by density gradient centrifugation (Lymphoprep) and the isolated HMs cultured (2 h, 37° C.) to remove non-adherent cells. The adherent HMs were cultured for 18 h (1×10^6 cells/well, 24-well plates)±endotoxin (LPS)±different compounds dissolved in DMSO (the final concentration of DMSO in the RPMI serum-free culture media with Pen./Strep. antibiotics was no greater than 0.5%). After incubation, the proinflammatory cytokines, TNFα, IL-1β, MCP-1 and IL-6 were measured in the conditioned media by ELISA and cytotoxicity was assessed by measuring the absorbance (490 nm) of formazan produced by reduction of MTS. The HMs alone ±0.1-0.5% DMSO produced minimal levels of these pro-inflammatory cytokines. However, addition of 100 ng/ml or 10 μg/ml of LPS both dramatically stimulated cytokine production.", "remark": "listed apart in the source"}, "[14]": {"test": "Diabetic rat model, 3-week oral treatment: blood glucose and hemoglobin A1c", "type": "in vivo", "settings": "diabetic rats, 100 mg/kg and 500 mg/kg oral daily, 3 weeks", "description": "as §1"}, "[15]": {"system": "caspase-3 activity in neonatal rat ventricular myocytes", "test": "Doxorubicin mediated caspase-3 activity", "type": "cell-based", "settings": "10 μM, doxorubicin 500 nM, 6 h and 24 h", "description": "as §3\nNeonatal rat ventricular myocytes, serum starved for 24 h, were treated with the inhibitors 1 h prior to the addition of 500 nM of doxorubicin (Sigma). At the indicated time points cells were washed with ice-cold phosphate buffered saline and lysed using RIPA buffer (Pierce) containing protease and phosphatase inhibitors (Sigma). Caspase-3 activity in the cell lysates was measured by incubation with 7-amino-4-trifluoromethyl coumarin (Enzo)."}, "MCP-1, TNFα, VEGF": {"system": "MCP-1, TNFα, VEGF", "test": "Cytokine and growth factor levels in LPS-challenged human monocytes, Luminex multiplex", "type": "cell-based", "settings": "2 μM, FIG. 2", "description": "The cytokine levels were measured by Luminex multiplex, a method that allows the simultaneous measurement of different biological markers."}}, "note": "Read-outs that look alike come from different tables or passages of the source."}
{"smiles": "COC(=O)C(C(=O)/C=C/c1ccc(O)c(OC)c1)C(=O)/C=C/c1ccc(O)c(OC)c1", "note": "[Compound 1, 1,7-Bis(4-hydroxy-3-methoxyphenyl)-4-methoxycarbonylhepta-1E,6E-dien-3,5-dione]", "values": [{"measurement": "Description of AEs", "setting": "diabetic rats", "result": "Minor inflamed sclera"}, {"measurement": "Incidence of Adverse Events (AEs)", "setting": "diabetic rats", "result": "1/6"}, {"measurement": "Maximum Inhibition @ 100 μM, MMP-2", "setting": "[1]; 100 μM", "result": 78, "unit": "%"}, {"measurement": "IC50", "setting": "[1]; read-out: IC50 MMP-2", "result": 48, "unit": "µM"}, {"measurement": "Plasma MMP-2 level", "setting": "[2]", "result": "reduced the excessive levels of MMPs to essentially normal levels"}, {"measurement": "Effect on severity of hyperglycemia (serum glucose)", "setting": "[3]", "result": "no effect on the severity of hyperglycemia"}, {"measurement": "Solubility in aqueous solutions (comparative)", "setting": "[4]", "result": "more soluble than the insoluble natural product curcumin"}, {"measurement": "Reduction of elevated MMP-2 level in skin (ELISA)", "setting": "MMP-2", "result": 28, "unit": "%"}, {"measurement": "IC50", "setting": "[5]", "result": 16, "unit": "µM"}, {"measurement": "Production and/or activity of MMP-9", "setting": "[6]", "result": "inhibited the production and/or activity of MMP-9"}, {"measurement": "MMP-9 level in gingiva", "setting": "[7]", "result": "reduced MMP-9 to the undetectable levels"}, {"measurement": "Plasma MMP-9 level", "setting": "[8]", "result": "reduced the excessive levels of MMPs to essentially normal levels"}, {"measurement": "Cytotoxicity Monocytes @ 5 h incubation", "setting": "human monocytes [9]; 2 uM", "result": 2, "unit": "uM- 0%"}, {"measurement": "Cytotoxicity Monocytes @ 5 h incubation", "setting": "human monocytes [9]; 10 uM", "result": 10, "unit": "uM- 0%"}, {"measurement": "Cytotoxicity Monocytes @ 5 h incubation", "setting": "human monocytes [9]; 25 uM", "result": 25, "unit": "uM- 33%"}, {"measurement": "Effect on p38 MAP kinase activation", "setting": "p38 MAP kinase", "result": "little/no effect"}, {"measurement": "IC50", "setting": "purified human PMN MMP-8; Example 7 experiment, 1 mM Ca++, 37° C., read-out: IC50, human neutrophil collagenase (MMP-8)", "result": 10, "unit": "µM"}, {"measurement": "IC50 against purified hMMP-8", "setting": "purified human PMN MMP-8; Table 1 experiments", "result": "equivalent to that of 1,10-O-phenanthroline"}, {"measurement": "IC50", "setting": "purified human PMN MMP-8; Table 1 experiments, read-out: IC50 against purified hMMP-8", "result": 35, "unit": "µM"}, {"measurement": "Reduction in alveolar bone loss vs untreated groups", "setting": "[10]; 100 mg/kg oral, p<0.05", "result": "~60", "unit": "%"}, {"measurement": "Reduction in alveolar bone loss vs untreated groups", "setting": "[10]; 500 mg/kg oral", "result": "less effective"}, {"measurement": "Recovery from human serum", "setting": "[11]", "result": "76-80%"}, {"measurement": "Pro- and activated-forms of MMP-2 in gingiva", "setting": "MMP-2 (gelatinase A)", "result": "neither diabetes nor compound 1 appeared to have a detectable effect"}, {"measurement": "Reduction of IL-1β in gingiva vs untreated diabetic", "setting": "IL-1β; higher oral dose (500 mg/kg)", "result": 95, "unit": "%"}, {"measurement": "Reduction of IL-1β in gingiva vs untreated diabetic", "setting": "IL-1β; lower oral dose (100 mg/kg)", "result": "about 18%"}, {"measurement": "LDH release", "setting": "[12]; 6 h", "result": "24286±930"}, {"measurement": "Effect on LDH release", "setting": "[12]; 24 h", "result": "less dramatic effect"}, {"measurement": "Cytotoxicity Monocytes @ 18 h incubation", "setting": "human monocytes [13]; 25 uM", "result": 25, "unit": "uM- 45.5%"}, {"measurement": "Cytotoxicity Monocytes @ 18 h incubation", "setting": "human monocytes [13]; 50 uM", "result": 50, "unit": "uM- 53%"}, {"measurement": "Effect on blood glucose and hemoglobin A1c levels", "setting": "[14]", "result": "no significant effect"}, {"measurement": "Effect on caspase-3 activity mediated by doxorubicin", "setting": "[15]", "result": "None of the MMP inhibitors, including compound 1, negatively modulate caspase-3 activity"}, {"measurement": "Reduction of proinflammatory cytokines and growth factors (MCP-1, TNFα, VEGF)", "setting": "MCP-1, TNFα, VEGF", "result": "potent in reducing proinflammatory cytokines such as MCP-1 and TNFα and growth factors such as VEGF"}]}
